pIC50: −log10 of the molar value. Counter-ions that a name gives are not always drawn.
Key:
[1] = molecular target: T1, G1 APOL1 (Homo sapiens, UniProt O14791, I384M/S342G); experiment: Acute APOL1 Thallium Assay with Inducible Stable Clones of HEK 293 Cells; assay type: cell-based; conditions: HEK 293 inducible stable clones, G1 APOL1; read-out: Thallium Assay (IC50)
T1 construct: expressed in transfected cells
T1 sequence (O14791 28-398 S342G/I384M): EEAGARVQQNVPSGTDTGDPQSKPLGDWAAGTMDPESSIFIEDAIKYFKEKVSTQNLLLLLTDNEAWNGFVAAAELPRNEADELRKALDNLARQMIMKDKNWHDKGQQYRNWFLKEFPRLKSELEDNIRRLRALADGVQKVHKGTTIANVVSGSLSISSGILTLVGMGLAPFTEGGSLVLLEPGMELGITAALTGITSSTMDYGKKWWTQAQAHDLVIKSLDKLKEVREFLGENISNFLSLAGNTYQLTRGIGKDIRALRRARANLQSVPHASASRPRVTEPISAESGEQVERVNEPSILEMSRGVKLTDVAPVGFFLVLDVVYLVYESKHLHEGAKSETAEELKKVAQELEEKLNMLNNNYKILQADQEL
How it was run: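 HEK293 T-Rex cells with a stable tetracycline-inducible G1 APOL1 construct (clone DC3.25) were induced with tetracycline at plating, 26000 cells per well, then incubated at 37° C. They were loaded with an AM-ester thallium-sensitive dye and stimulated with Tl+. The fluorescence rise measured Tl+ influx through APOL1 pores.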

[2] = molecular target: T2, APOL1 G1 Protein (Homo sapiens, UniProt O14791, I384M/S342G); experiment: Trypanosoma brucei brucei Lysis Assay Using APOL1 Recombinant Protein (AlamarBlue viability); assay type: cell-based; conditions: read-out: Trypanosomal Assay (IC50)
T2 sequence (O14791 28-398 S342G/I384M): T1 sequence (O14791 28-398 S342G/I384M)
How it was run: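 Lister 427 bloodstream-form trypanosomes seeded at 120,000 per well in phenol-red-free, serum-free medium and lysed with recombinant APOL1 variant protein. Viability read by AlamarBlue (resazurin) fluorescence. Percent viability relative to untreated wells, interpolated from a standard curve of seeded parasites.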

| SMILES | pIC50 [1] | pIC50 [2] |
| --- | --- | --- |
| C[C@@H](CO)NC(=O)CCc1c(-c2ccc(F)cc2)[nH]c2ccc(F)cc12 [Compound 31] | < 6.00 | 6.00 to 6.60 |
| NC(=O)C1(NC(=O)CCc2c(-c3ccc(F)cc3)[nH]c3ccc(F)cc23)CC1 [Compound 20] | < 6.00 | < 6.00 |
| C[C@H](O)[C@H](CO)NC(=O)CCc1c(-c2ccc(F)cc2)[nH]c2ccc(F)cc12 [Compound 28] | 6.00 to 6.60 | < 6.00 |
| CC1(NC(=O)CCc2c(-c3ccc(F)cc3)[nH]c3ccc(F)cc23)COC1 [Compound 16] | < 6.00 | 6.00 to 6.60 |
| CCNC(=O)C(C)NC(=O)CCc1c(-c2ccc(F)cc2)[nH]c2ccc(F)cc12 (racemic) [Compound 12] | 6.00 to 6.60 | 6.00 to 6.60 |
| CC(CN)NC(=O)CCc1c(-c2ccc(F)cc2)[nH]c2ccc(F)cc12 (racemic) [Compound 5] | < 6.00 | < 6.00 |
| N[C@H]1C[C@H](NC(=O)CCc2c(-c3ccc(F)cc3)[nH]c3ccc(F)cc23)C1 [Compound 54] | < 6.00 | < 6.00 |
| O=C(CCc1c(-c2ccc(F)cc2)[nH]c2ccc(F)cc12)N1CCCC1CO (stereo not shown) [Compound 71] | < 6.00 | < 6.00 |
| CC(C)(C)OC(=O)NC1CCN(C(=O)CCc2c(-c3ccc(F)cc3)[nH]c3ccc(F)cc23)C1 (stereo not shown) [Compound 34] | < 6.00 | < 6.00 |
| O=C(CCc1c(-c2ccc(F)cc2)[nH]c2ccc(F)cc12)NC1(CO)CC1 [Compound 40] | 6.00 to 6.60 | 6.00 to 6.60 |
| CC(C)C(CO)NC(=O)CCc1c(-c2ccc(F)cc2)[nH]c2ccc(F)cc12 (stereo not shown) [Compound 75] | < 6.00 | < 6.00 |
| CC(C)(C)OC(=O)N[C@H]1C[C@@H](NC(=O)CCc2c(-c3ccc(F)cc3)[nH]c3ccc(F)cc23)C1 [Compound 83] | < 6.00 | < 6.00 |
| O=C(CCc1c(-c2ccc(F)cc2)[nH]c2c(F)ccc(F)c12)N[C@H]1CCOC1=O [Compound 233, 3-[4,7-difluoro-2-(4-fluorophenyl)-1H-indol-3-yl]-N-[(3S)-2-oxotetrahydrofuran-3-yl]propanamide] | 6.00 to 6.60 | < 6.00 |
| O=C(CCc1c(-c2ccc(F)cc2)[nH]c2ccc(F)cc12)NCC1(O)CCC1 [Compound 64] | < 6.00 | < 6.00 |
| Cc1cc(NC(=O)CCc2c(-c3ccc(F)cc3)[nH]c3ccc(F)cc23)no1 [Compound 526] | < 6.00 | < 6.00 |
| NC1CCN(C(=O)CCc2c(-c3ccc(F)cc3)[nH]c3ccc(F)cc23)C1 (stereo not shown) [Compound 49] | < 6.00 | < 6.00 |
| O=C(CCc1c(-c2ccc(F)cc2)[nH]c2ccc(F)cc12)N[C@H]1CNC[C@@H]1O [Compound 2, 3-[5-fluoro-2-(4-fluorophenyl)-1H-indol-3-yl]-N-[(3S,4S)-4-hydroxypyrrolidin-3-yl]propanamide hydrochloride] | < 6.00 | < 6.00 |
| O=C(CCc1c(-c2ccc(F)cc2)[nH]c2ccc(F)cc12)NC1(CO)CCC1 [Compound 4] | > 6.60 | > 6.60 |
| CC1(N)CCN(C(=O)CCc2c(-c3ccc(F)cc3)[nH]c3ccc(F)cc23)C1 (racemic) [Compound 67] | < 6.00 | < 6.00 |
| C[C@H](O)CNC(=O)CCc1c(-c2ccc(F)cc2)[nH]c2ccc(F)cc12 [Compound 78] | < 6.00 | < 6.00 |
| O=C(CCc1c(-c2ccc(F)cc2)[nH]c2ccc(F)cc12)NCC(F)(F)F [Compound 39] | 6.00 to 6.60 | < 6.00 |
| O=C(CCc1c(-c2ccc(F)cc2)[nH]c2ccc(F)cc12)N[C@H]1CC[C@@H]1O [Compound 29] | 6.00 to 6.60 | 6.00 to 6.60 |
| O=C(CCc1c(-c2ccc(F)cc2)[nH]c2ccc(F)cc12)N[C@@H]1CCC[C@@H]1O [Compound 15] | 6.00 to 6.60 | 6.00 to 6.60 |
| N[C@H]1C[C@@H](NC(=O)CCc2c(-c3ccc(F)cc3)[nH]c3ccc(F)cc23)C1 [Compound 10] | < 6.00 | < 6.00 |
| C[C@H](NC(=O)CCc1c(-c2ccc(F)cc2)[nH]c2ccc(F)cc12)C(N)=O [Compound 61] | < 6.00 | < 6.00 |

Now from value to compound, other results behind:

| pIC50 [1] | SMILES | pIC50 [2] |
| --- | --- | --- |
| < 6.00 | O=C(CCc1c(-c2ccc(F)cc2)[nH]c2c(F)cc(F)cc12)NC1(CO)CCOC1 (stereo not shown) [Compound 116] | < 6.00 |
| < 6.00 | Cc1ccc(CNC(=O)CCc2c(-c3ccc(F)cc3)[nH]c3c(F)cc(F)cc23)o1 [Compound 177] | < 6.00 |
| < 6.00 | CC(C)(NC(=O)CCc1c(-c2ccc(F)cc2)[nH]c2c(F)cc(F)cc12)C(F)(F)F [Compound 182] | < 6.00 |
| < 6.00 | Cn1ccnc1NC(=O)CCc1c(-c2ccc(F)cc2)[nH]c2c(F)cc(F)cc12 [Compound 108] | < 6.00 |
| < 6.00 | O=C(CCc1c(-c2ccc(F)cc2)[nH]c2c(F)cc(F)cc12)Nc1nnco1 [Compound 151] | < 6.00 |
| < 6.00 | O=C(CCc1c(-c2ccc(F)cc2)[nH]c2c(F)cc(F)cc12)Nc1cccc(=O)[nH]1 [Compound 170] | < 6.00 |
| < 6.00 | O=C(CCc1c(-c2ccc(F)cc2)[nH]c2c(F)cc(F)cc12)Nc1nccs1 [Compound 167] | < 6.00 |
| > 6.60 | N#Cc1ccc(-c2[nH]c3c(F)cc(F)cc3c2CCC(=O)N[C@@H](CO)C(F)(F)F)cc1 [Compound 234, 3-[2-(4-cyanophenyl)-5,7-difluoro-1H-indol-3-yl]-N-[(1S)-2,2,2-trifluoro-1-(hydroxymethyl)ethyl]propanamide] | > 6.60 |
| < 6.00 | O=C(CCc1c(-c2ccc(F)cc2)[nH]c2c(F)cc(F)cc12)NC1CCOC1 (stereo not shown) [Compound 169] | < 6.00 |
| 6.00 to 6.60 | O=C(CCc1c(-c2ccc(F)cc2)[nH]c2c(F)cc(F)cc12)NC1(CO)COC1 [Compound 126] | 6.00 to 6.60 |
| < 6.00 | O=C(CCc1c(-c2ccc(F)cc2)[nH]c2c(F)cc(F)cc12)NCc1ncco1 [Compound 153] | < 6.00 |
| > 6.60 | OCCCc1c(-c2ccc(F)cc2)[nH]c2c(F)cc(F)cc12 [Compound 517, 3-[5,7-difluoro-2-(4-fluorophenyl)-1H-indol-3-yl]propan-1-ol] | > 6.60 |
| < 6.00 | CC1CC(NC(=O)CCc2c(-c3ccc(F)cc3)[nH]c3c(F)cc(F)cc23)C(=O)O1 (mixture of isomers) [Compound 189] | < 6.00 |
| < 6.00 | O=C(CCc1c(-c2ccc(F)cc2)[nH]c2c(F)cc(F)cc12)Nc1cnoc1 [Compound 146] | < 6.00 |
| < 6.00 | O=C(CCc1c(-c2ccc(F)cc2)[nH]c2c(F)cc(F)cc12)N1CCC[C@@H]1CO [Compound 117] | 6.00 to 6.60 |
| < 6.00 | O=C(CCc1c(-c2ccc(F)cc2)[nH]c2c(F)cc(F)cc12)NC1(C(F)(F)F)CC1 [Compound 129] | < 6.00 |
| < 6.00 | Cc1csc(NC(=O)CCc2c(-c3ccc(F)cc3)[nH]c3c(F)cc(F)cc23)n1 [Compound 125] | < 6.00 |
| < 6.00 | O=C(CCc1c(-c2ccc(F)cc2)[nH]c2c(F)cc(F)cc12)NC(c1ccco1)C(F)(F)F (stereo not shown) [Compound 157] | < 6.00 |
| < 6.00 | O=C(CCc1c(-c2ccc(F)cc2)[nH]c2c(F)cc(F)cc12)NCC1(CO)COC1 [Compound 140] | < 6.00 |
| > 6.60 | O=C(CCc1c(-c2ccc(F)cc2)[nH]c2c(F)cc(F)cc12)N[C@H]1CCOC1=O [Compound 187] | > 6.60 |
| > 6.60 | O=C(CCc1c(-c2ccc(F)cc2)[nH]c2c(F)cc(F)cc12)N[C@@H](CO)C(F)(F)F [Compound 121] | > 6.60 |
| 6.00 to 6.60 | CC(=O)OCC(CO)NC(=O)CCc1c(-c2ccc(F)cc2)[nH]c2c(F)cc(F)cc12 (stereo not shown) [Compound 141] | 6.00 to 6.60 |
| 6.00 to 6.60 | O=C(CCc1c(-c2ccc(F)cc2)[nH]c2c(F)ccc(F)c12)N[C@@H](CO)C(F)(F)F [Compound 232, 3-[4,7-difluoro-2-(4-fluorophenyl)-1H-indol-3-yl]-N-[(1S)-2,2,2-trifluoro-1-(hydroxymethyl)ethyl]propanamide] | 6.00 to 6.60 |
| 6.00 to 6.60 | CC(C)(CO)NC(=O)CCc1c(-c2ccc(F)cc2)[nH]c2c(F)cc(F)cc12 [Compound 103] | 6.00 to 6.60 |
| < 6.00 | C[C@@H](CO)N(C)C(=O)CCc1c(-c2ccc(F)cc2)[nH]c2c(F)cc(F)cc12 [Compound 149] | < 6.00 |
| < 6.00 | O=C(CCc1c(-c2ccc(F)cc2)[nH]c2c(F)cc(F)cc12)NC1CC1(F)F (stereo not shown) [Compound 142] | < 6.00 |
| 6.00 to 6.60 | O=C(CCc1c(-c2ccc(F)cc2)[nH]c2ccc(F)cc12)NC(CO)CF (stereo not shown) [Compound 90] | > 6.60 |
| > 6.60 | C[C@@H](CO)NC(=O)NCCc1c(-c2ccc(F)cc2)[nH]c2c(F)cc(F)cc12 [Compound 283] | > 6.60 |

Reference: patent US20230014907A1, “INHIBITORS OF APOL1 AND METHODS OF USING SAME” (Vertex Pharmaceuticals Incorporated, priority 2020, published 2023)
